What was measured:
[1] = test system: mitochondria from HeLa cells; test: tBid-binding capacity of mitochondria isolated from HeLa cells (FITC-tBid(G94E)); format: cell-based; conditions: 5 μM AD198 4 h, versus DMSO-treated control cells
Experimental: (a) Increased tBid-binding capacity by AD198. Mitochondria were isolated from HeLa cells treated with 5 μM AD198 or DMSO as control for 4 h. Mitochondria (50 μg by protein) were incubated with 0, 10, 20, 60 and 100 ng/μl FITC-tBid(G94E) in total volume 50 μl for […] followed by washing to remove unbounded probes. The fluorescent intensity was quantified with Bio-Tek microplate reader. Error bars indicate standard deviations of three independent experiments. (b) Dose response with mitochondria. Various amounts of mitochondria in (a) were incubated with 10 ng/μl tBid(G94E)-FITC as in (a). The fluorescent intensity of the washed mitochondria was quantified with Bio-Tek microplate reader. (c) Expression of PLS3 or PLS3(T21D) in selected HeLa cells. […] The tBid-binding capacity of the mitochondria from each cells were analyzed as in (a). […] Mitochondria were isolated from cells in (c) and analyzed as in (b).
Analysis of the tBid-binding capacity of mitochondria—Isolated mitochondria were incubated with FITC-tBid(G94E) in 50 μl reaction buffer (250 mM sucrose, 20 mM HEPES, 10 mM KCl, 3 mM KH2PO4, 1.5 mM MgCl2, 1 mM EGTA, 0.5% mg/ml BSA, PH 7.4) for 30 min at room temperature. Mitochondria were pelleted at 10,000×g and washed extensively with the reaction buffer to remove unbound FITC-tBid(G94E) and the fluorescence intensity was quantified with Bio-Tek microplate reader.

[2] = test system: PLS3; test: PLS3 threonine phosphorylation: Ni-bead pulldown of His-tagged PLS3, Western blot with PT antibody, HeLa cells; format: cell-based; conditions: HeLa cells with His-tagged PLS3, AD198 0, 2, 4 and 6 h
Experimental: Pulldown of His-tagged proteins from transfected HeLa cells—Transfected HeLa cells were washed with ice-cold phosphate-buffered saline (PBS) and incubated in the lysis buffer (50 mM NaH2PO4, 500 mM NaCl, 20 mM imidazole, 1% Triton X-100, 20 mM 2-mercaptoethanol, pH8.0) for 5 min and sonicated briefly on ice. The lysates were centrifuged at 10,000×g for 10 min at 4° C. The supernatant was saved and the protein concentration was measured with the Bio-Rad protein assay (Bio-Rad Laboratories, Hercules, Calif.) and adjusted to same concentrations for each sample. The supernatants were incubated with Ni-beads on a shaker for 2 h at 4° C. Beads were then pelleted at 800×g for 2 min at 4° C. and washed with ice-cold wash buffer (50 mM NaH2PO4, 500 mM NaCl, 20 mM imidazole, 1% Triton X-100, pH8.0) for five times. Beads were resuspended in SDS sample buffer and analyzed by Western blotting.
Western blot analysis—Equal amounts of protein were analyzed by 10% SDS-PAGE and electrotransferred to Immobilon-P membranes (Millipore Corporation, Bedford, Mass.). Monoclonal PKC-δ, PT, and β-actin and polyclonal VDAC antibodies were used at 1:1,000 and polyclonal PLS3 antibody was used at 1:2,000 for immunoblotting. Secondary anti-mouse or anti-rabbit antibodies conjugated with horseradish peroxidase were used at 1:2,000 and incubated with the membrane for 1 h at room temperature. […]

Compound: CCCCC(=O)OCC(=O)[C@]1(O)Cc2c(O)c3c(c(O)c2[C@@H](O[C@H]2C[C@H](NCc4ccccc4)[C@H](O)[C@H](C)O2)C1)C(=O)c1c(OC)cccc1C3=O [AD198, N-benzyladriamycin-14-valerate]
- tBid-binding capacity of mitochondria [1]: significantly higher tBid-binding capacity
- threonine phosphorylation of PLS3 [2]: steadily increased

Source: patent US20080249043A1, “Methods and Compositions Involving Protein Kinase C-Delta” (priority 2004, published 2008)
